# According to patent publication US9650395B2, “Antibacterial compounds and methods for use” (PTC Therapeutics, Inc., priority 2011, dated 2017):
# Read-outs that look alike come from different tables or passages of the source.
# What was measured:
# [1] = test system: super sensitive Gram-negative Escherichia coli (E. coli) BAS849; assay: Antibacterial activity, microbroth dilution MIC, E. coli BAS849; type: cell-based; details: Escherichia coli, read-out: MIC, BAS849
# [2] = test system: Pseudomonas aeruginosa (P. aeruginosa) 27853; assay: Antibacterial activity, MIC, P. aeruginosa 27853; type: cell-based; details: Pseudomonas aeruginosa, P. aeruginosa 27853; read-out: MIC 27853
# Excerpt: (§1) The antibacterial activity from a microbroth dilution method may be presented as the minimum inhibitory concentration (MIC in […]). The MIC value is the lowest concentration of a drug which prevents macroscopically visible bacterial growth under test conditions.
# Antibacterial activity of test compounds against the Gram-negative bacterium Pseudomonas aeruginosa (P. aeruginosa) 27853 is shown in Table 5.
# [3] = test system: control Gram-negative E. coli 25922 strain; assay: Antibacterial activity, microbroth dilution MIC, E. coli 25922; type: cell-based, Escherichia coli; details: Escherichia coli; E. coli 25922, microbroth dilution; read-out: MIC, 25922
# [4] = test system: E. coli ELZ4251 (MDR clinical isolate); assay: Antibacterial activity, MIC, MDR E. coli ELZ4251; type: cell-based, Escherichia coli; details: Escherichia coli, E. coli ELZ4251, MDR clinical isolate; read-out: MIC ELZ4251
# [5] = test system: quinolone resistant E. coli LZ3111; assay: Antibacterial activity, MIC, quinolone resistant E. coli LZ3111; type: cell-based, Escherichia coli; details: Escherichia coli, read-out: MIC, LZ3111
# Excerpt: as §1
# Mutations in these regions are known to confer a high level resistance to the quinolone class of antibiotics.
# [6] = test system: Gram-positive Staphylococcus aureus (S. aureus) 29213; assay: Antibacterial activity, microbroth dilution MIC, S. aureus 29213; type: cell-based; details: Staphylococcus aureus; S. aureus 29213, microbroth dilution; read-out: MIC, 29213
# [7] = test system: E. coli ELZ4000 (MDR clinical isolate); assay: Antibacterial activity, MIC, MDR E. coli ELZ4000; type: cell-based, Escherichia coli; details: Escherichia coli; E. coli ELZ4000, MDR clinical isolate; read-out: MIC ELZ4000
# [8] = test system: Neisseria meningitidis (N. meningitidis) 13090; assay: Antibacterial activity, MIC, N. meningitidis 13090; type: cell-based; details: Neisseria meningitidis; N. meningitidis 13090; read-out: MIC 13090
# [9] = test system: Moraxella catarrhalis (M. catarrhalis) 25238; assay: Antibacterial activity, MIC, M. catarrhalis 25238; type: cell-based; details: Moraxella catarrhalis, M. catarrhalis 25238; read-out: MIC 25238
# [10] = E. coli BAS849, microbroth dilution
Structure (SMILES),"MIC [1, 10] [µg/mL]",MIC [2] [µg/mL],MIC [3] [µg/mL],MIC [4] [µg/mL],MIC [5] [µg/mL],MIC [6] [µg/mL],MIC [7] [µg/mL],MIC [8] [µg/mL],MIC [9] [µg/mL],MIC [1] [µg/mL]
"CCc1cc(C(=O)O)c(=O)[nH]c1-c1ccc(N2CCCC2C)cc1 (stereo not drawn) [Cpd 139, 5-ethyl-6-[4-(2-methylpyrrolidin-1-yl)phenyl]-2-oxo-1,2-dihydropyridine-3-carboxylic acid]",< 1,12.5 to 150,3.5 to 12.5,12.5 to 150,12.5 to 150,3.5 to 12.5,12.5 to 150,,,
"CCc1cc(C(=O)O)c(=O)[nH]c1-c1ccc(N)cc1 [Cpd 3, 6-(4-aminophenyl)-5-ethyl-2-oxo-1,2-dihydropyridine-3-carboxylic acid]",< 1,,3.5 to 12.5,12.5 to 150,12.5 to 150,12.5 to 150,12.5 to 150,< 1,< 1,
"CCc1cc(C(=O)O)c(=O)[nH]c1-c1ccc(N2CCCC2)cc1F [Cpd 38, 5-ethyl-6-[2-fluoro-4-(pyrrolidin-1-yl)phenyl]-2-oxo-1,2-dihydropyridine-3-carboxylic acid]",< 1,,1 to 3.5,12.5 to 150,12.5 to 150,3.5 to 12.5,12.5 to 150,,< 1,
"CCc1cc(C(=O)O)c(=O)[nH]c1-c1ccc(N2CC=CC2)cc1 [Cpd 301, 6-[4-(2,5-dihydro-1H-pyrrol-1-yl)phenyl]-5-ethyl-2-oxo-1,2-dihydropyridine-3-carboxylic acid]",< 1,3.5 to 12.5,< 1,12.5 to 150,12.5 to 150,< 1,12.5 to 150,,,
"CCc1cc(C(=O)O)c(=O)[nH]c1-c1ccc(N2C[C@H](CN)[C@@H](C)C2)cc1 [Cpd 216, 6-{4-[(3S,4R)-3-(aminomethyl)-4-methylpyrrolidin-1-yl]phenyl}-5-ethyl-2-oxo-1,2-dihydropyridine-3-carboxylic acid]",12.5 to 150,12.5 to 150,12.5 to 150,12.5 to 150,12.5 to 150,12.5 to 150,12.5 to 150,,,
"CCc1cc(C(=O)O)c(=O)[nH]c1-c1ccc(N2C[C@H]3CC[C@@H](N)[C@H]3C2)cc1.O=C(O)C(F)(F)F [Cpd 202, 6-{4-[(3aR,4R,6aS)-4-aminohexahydrocyclopenta[c]pyrrol-2(1H)-yl]phenyl}-5-ethyl-2-oxo-1,2-dihydropyridine-3-carboxylic acid trifluoroacetate]",,12.5 to 150,12.5 to 150,12.5 to 150,12.5 to 150,12.5 to 150,12.5 to 150,,,1 to 3.5
"CCc1cc(C(=O)O)c(=O)[nH]c1-c1ccc(N2C[C@H]3CCC[C@H](N)[C@H]3C2)cc1.O=C(O)C(F)(F)F [Cpd 203, 6-{4-[(3aR,4S,7aS)-4-aminooctahydro-2H-isoindol-2-yl]phenyl}-5-ethyl-2-oxo-1,2-dihydropyridine-3-carboxylic acid trifluoroacetate]",,12.5 to 150,12.5 to 150,12.5 to 150,12.5 to 150,12.5 to 150,12.5 to 150,,,1 to 3.5
"CCc1cc(C(=O)O)c(=O)[nH]c1-c1ccc(N2CC[C@H](F)C2)cc1 [Cpd 153, 5-ethyl-6-{4-[(3S)-3-fluoropyrrolidin-1-yl]phenyl}-2-oxo-1,2-dihydropyridine-3-carboxylic acid]",< 1,3.5 to 12.5,< 1,12.5 to 150,12.5 to 150,1 to 3.5,12.5 to 150,,,
"CCc1cc(C(=O)O)c(=O)[nH]c1-c1ccc(N2CCC(F)C2)cc1 (stereo not drawn) [Cpd 152, 5-ethyl-6-[4-(3-fluoropyrrolidin-1-yl)phenyl]-2-oxo-1,2-dihydropyridine-3-carboxylic acid]",< 1,3.5 to 12.5,1 to 3.5,12.5 to 150,12.5 to 150,3.5 to 12.5,12.5 to 150,,,
"CCc1c(-c2ccc(N3CC[C@H](F)C3)cc2)[nH]c(=O)c(C(=O)O)c1O [Cpd 85, 5-ethyl-6-{4-[(3S)-3-fluoropyrrolidin-1-yl]phenyl}-4-hydroxy-2-oxo-1,2-dihydropyridine-3-carboxylic acid]",< 1,12.5 to 150,12.5 to 150,12.5 to 150,12.5 to 150,3.5 to 12.5,12.5 to 150,,,
"CCc1cc(C(=O)O)c(=O)[nH]c1-c1ccc(N2CCC(N(C)C)C2)cc1 (stereo not drawn) [Cpd 149, 6-{4-[3-(dimethylamino)pyrrolidin-1-yl]phenyl}-5-ethyl-2-oxo-1,2-dihydropyridine-3-carboxylic acid]",< 1,12.5 to 150,1 to 3.5,12.5 to 150,12.5 to 150,12.5 to 150,12.5 to 150,,,
"CCc1cc(C(=O)O)c(=O)[nH]c1-c1ccc(N(C)C)cc1F [Cpd 53, 6-[4-(dimethylamino)-2-fluorophenyl]-5-ethyl-2-oxo-1,2-dihydropyridine-3-carboxylic acid]",< 1,,1 to 3.5,,,12.5 to 150,,,< 1,
"CCc1cc(C(=O)O)c(=O)[nH]c1-c1ccc(N2CCC(N=[N+]=[N-])C2)cc1 (stereo not drawn) [Cpd 129, 6-[4-(3-azidopyrrolidin-1-yl)phenyl]-5-ethyl-2-oxo-1,2-dihydropyridine-3-carboxylic acid]",< 1,12.5 to 150,1 to 3.5,12.5 to 150,12.5 to 150,3.5 to 12.5,12.5 to 150,,,
"CCc1c(-c2ccc(N3CCC(C)(CN)C3)cc2)[nH]c(=O)c(C(=O)O)c1O (stereo not drawn) [Cpd 290, 6-{4-[3-(aminomethyl)-3-methylpyrrolidin-1-yl]phenyl}-5-ethyl-4-hydroxy-2-oxo-1,2-dihydropyridine-3-carboxylic acid]",< 1,12.5 to 150,1 to 3.5,3.5 to 12.5,3.5 to 12.5,12.5 to 150,12.5 to 150,,,
"CCc1cc(C(=O)O)c(=O)[nH]c1-c1ccc(N2CCC(NCc3ccccc3)C2)cc1.Cl (stereo not drawn) [Cpd 174, 6-{4-[3-(benzylamino)pyrrolidin-1-yl]phenyl}-5-ethyl-2-oxo-1,2-dihydropyridine-3-carboxylic acid hydrochloride]",< 1,12.5 to 150,< 1,12.5 to 150,12.5 to 150,12.5 to 150,12.5 to 150,,,
"CCc1cc(C(=O)O)c(=O)[nH]c1-c1ccc(N2CCC(N)C2)cc1.O=C(O)C(F)(F)F (stereo not drawn) [Cpd 131, 6-[4-(3-aminopyrrolidin-1-yl)phenyl]-5-ethyl-2-oxo-1,2-dihydropyridine-3-carboxylic acid trifluoroacetate]",,12.5 to 150,3.5 to 12.5,12.5 to 150,12.5 to 150,12.5 to 150,12.5 to 150,,,< 1
"CCc1cc(C(=O)O)c(=O)[nH]c1-c1ccc(N2C[C@H]3CCC[C@H](N=[N+]=[N-])[C@H]3C2)cc1.O=C(O)C(F)(F)F [Cpd 244, 6-{4-[(3aR,4S,7aS)-4-azidooctahydro-2H-isoindol-2-yl]phenyl}-5-ethyl-2-oxo-1,2-dihydropyridine-3-carboxylic acid trifluoroacetate]",,12.5 to 150,12.5 to 150,12.5 to 150,12.5 to 150,1 to 3.5,12.5 to 150,,,< 1
